± gives the expanded uncertainty stated by the source.
What was measured:
[1] = xn = mol fraction of the nth substance listed; settings: 298 K, 100 kPa, Crystal, X-ray diffraction
[2] = excess molar enthalpy (molar enthalpy of mixing); xn = mol fraction of the nth substance listed; settings: 298 K, 100 kPa, Crystal, Calvet calorimetry

Row | SMILES | mass density ([1]; x1 = 0.0847) [kg/m3] | mass density ([1]; x1 = 0.1557) [kg/m3] | mass density ([1]; x1 = 0.2937) [kg/m3] | excess molar enthalpy ([2]; x1 = 0.0847) [kcal/mol] | excess molar enthalpy ([2]; x1 = 0.1557) [kcal/mol] | excess molar enthalpy ([2]; x1 = 0.2937) [kcal/mol] | mass density ([1]; x1 = 0.2209) [kg/m3] | mass density ([1]; x1 = 0.4319) [kg/m3] | mass density ([1]; x1 = 0.7519) [kg/m3] | excess molar enthalpy ([2]; x1 = 0.2209) [kcal/mol] | excess molar enthalpy ([2]; x1 = 0.4319) [kcal/mol] | excess molar enthalpy ([2]; x1 = 0.7519) [kcal/mol]
1 | [O-2].[O-2].[Zr+4] [zirconium oxide] + [O-2].[O-2].[U+4] | 10630 ± 90 | 10260 ± 90 | 9570 ± 70 | -2.18 ± 1 | -2.12 ± 0.837 | 0.194 ± 0.765 | – | – | – | – | – | –
2 | [O-2].[O-2].[Th+4] [thorium dioxide] + [O-2].[O-2].[U+4] | – | – | – | – | – | – | 10730 ± 90 | 10510 ± 90 | 10070 ± 90 | -1.65 ± 0.765 | 0.37 ± 1.12 | -0.282 ± 0.669

— the NIST ThermoML archive (doi:10.1016/j.jct.2017.05.026)
